Measured values published in patent US9260459B2, “4,6-hexadecadiene-2,4-dicarboxylic acid derivative” (Kyowa Hakko Kirin Co., Ltd., priority 2012, dated 2016).

Each compound was assayed on human cervical cancer cell line HeLa (assay: Cell growth inhibition test against human cervical cancer cells). Settings: compound concentration 20 μmol/L, 72 hours culture, read-out: inhibited the cell growth.
Type: cell-based
Method: As a cervical cancer cell line, a human cervical cancer cell line HeLa (DS Pharma Biomedical, Cat. No. EC93021013-F0) was used.
The cell line was cultured under conditions of 37° C. and 5% carbon dioxide.
The difference in absorbance in the well in which the cells were not treated with the compound was taken as 100%, and the difference in absorbance in the well in which the cells were not inoculated was taken as 0%, and the cell growth ratio (%) was calculated based on the difference in absorbance in the compound-treated group.
Work on `CCC(C)CC(C)CC(C)CC(C)/C=C(C)/C=C(/CC(C)C(=O)OC1C(=O)OC(C(=O)OCOC(C)=O)C1C(=O)OCOC(C)=O)C(=O)OCOC(C)=O` (stereo not shown) [Compound 27, Di(acetoxymethyl) 4-{(4Z,6E)-4-(acetoxymethoxycarbonyl)-2,6,8,10,12,14-hexamethylhexadec-4,6-dienoyloxy}-5-oxotetrahydrofuran-2,3-dicarboxylate] yielded an inhibition at 20 µM of at least 90%.
For `CCC(C)CC(C)CC(C)CC(C)/C=C(C)/C=C(/CC(C)C(=O)OC1C(=O)OC(C(=O)O)C1C(=O)O)C(=O)O` (stereo not shown) [Compound 1, 4-{(4Z,6E)-4-Carboxy-2,6,8,10,12,14-hexamethylhexadec-4,6-dienoyloxy}-5-oxotetrahydrofuran-2,3-dicarboxylic Acid], the inhibition at 20 µM was at least 90%.

Same assay, conditions: compound concentration 200 μmol/L, 72 hours culture, read-out: inhibited the cell growth
`CCC(C)CC(C)CC(C)CC(C)/C=C(C)/C=C(/CC(C)C(=O)OCOC(C)=O)C(=O)OCOC(C)=O` (stereo not shown) [Compound 29, Bis(acetoxymethyl) (Z)-2-methyl-4-{(E)-2,4,6,8,10-pentamethyldodec-2-enylidene}pentanedioate] showed an inhibition at 200 µM of at least 90%.
With `CCC(C)CC(C)CC(C)CC(C)/C=C(C)/C=C(/CC(C)C(=O)CCCC(=O)O)C(=O)O` (stereo not shown) [Compound 12, (2Z,4E)-2-{3-(3-Carboxypropyl)-2-methyl-3-oxopropyl}-4,6,8,10,12-pentamethyltetradec-2,4-dienoic Acid] the inhibition at 200 µM was at least 90%.
`CCC(C)CC(C)CC(C)CC(C)/C=C(C)/C=C(/CC(C)C(=O)OC(C(=O)O)C(C(=O)O)C(=O)O)C(=O)O` (stereo not shown) [Compound 23, 2-{(4Z,6E)-4-Carboxy-2,6,8,10,12,14-hexamethylhexadec-4,6-dienoyloxy}ethane-1,1,2-tricarboxylic Acid] showed an inhibition at 200 µM of at least 90%.
`CCC(C)CC(C)CC(C)CC(C)/C=C(C)/C=C(/CC(C)C(=O)OC(C(=O)OC)C(C(=O)OC)C(O)C(=O)OC)C(=O)OC` (stereo not shown) [Compound 7, Trimethyl 1-hydroxy-3-{(4Z,6E)-4(methoxycarbonyl)-2,6,8,10,12,14-hexamethylhexadec-4,6-dienoyloxy}-propane-1,2,3-tricarboxylate] was tested, and the inhibition at 200 µM was at least 90%.
With `CCC(C)CC(C)CC(C)CC(C)/C=C(C)/C=C(/CC(C)C(=O)OCC[C@H](O)C(=O)O)C(=O)O` (stereo partly drawn) [Compound 16, (2Z,4E)-2-[3-{(S)-3-Carboxy-3-hydroxypropoxy}-2-methyl-3-oxopropyl]-4,6,8,10,12-pentamethyltetradec-2,4-dienoic Acid] the inhibition at 200 µM was at least 90%.
In the case of `CCC(C)CC(C)CC(C)CC(C)/C=C(C)/C=C(/CC(C)C(=O)OCOC(C)=O)C(=O)O` (stereo not shown) [Compound 28, (2Z,4E)-2-{3-(Acetoxymethoxy)-2-methyl-3-oxopropyl}-4,6,8,10,12-pentamethyltetradec-2,4-dienoic Acid], the inhibition at 200 µM was at least 90%.
In the case of `CCC(C)CC(C)CC(C)CC(C)/C=C(C)/C=C(/CC(C)C(=O)C[C@@H](O)CO)C(=O)O` (stereo partly drawn) [Compound 19, (2Z,4E)-2-[3-{(R)-2,3-Dihydroxypropyl}-2-methyl-3-oxopropyl]-4,6,8,10,12-pentamethyltetradec-2,4-dienoic Acid], the inhibition at 200 µM was at least 90%.
Compound `CCC(C)CC(C)CC(C)CC(C)/C=C(C)/C=C(/CC(C)C(=O)[C@@H]1COC(=O)C1)C(=O)O` (stereo partly drawn) [Compound 21, (2Z,4E)-4,6,8,10,12-Pentamethyl-2-[2-methyl-3-oxo-3-{(S)-5-oxotetrahydrofuran-3-yl}propyl]tetradec-2,4-dienoic Acid] has an inhibition at 200 µM of at least 90%.
For `CCC(C)CC(C)CC(C)CC(C)/C=C(C)/C=C(/CC(C)C(=O)OCCC(=O)O)C(=O)O` (stereo not shown) [Compound 11, (2Z,4E)-2-{3-(2-Carboxyethoxy)-2-methyl-3-oxopropyl}-4,6,8,10,12-pentamethyltetradec-2,4-dienoic Acid], the inhibition at 200 µM was at least 90%.
In the case of `CCC(C)CC(C)CC(C)CC(C)/C=C(C)/C=C(/CC(C)C(=O)OC)C(=O)O` (stereo not shown) [Compound 10, (2Z,4E)-2-(3-Methoxy-2-methyl-3-oxopropyl)-4,6,8,10,12-pentamethyltetradec-2,4-dienoic Acid], the inhibition at 200 µM was at least 90%.
Work on `CCC(C)CC(C)CC(C)CC(C)/C=C(C)/C=C(/CC(C)C(=O)OCC(CC(=O)O)C(=O)O)C(=O)O` (stereo not shown) [Compound 24, 2-[{(4Z,6E)-4-Carboxy-2,6,8,10,12,14-hexamethylhexadec-4,6-dienoyloxy}methyl]succinic Acid] yielded an inhibition at 200 µM of at least 90%.
`CCC(C)CC(C)CC(C)CC(C)/C=C(C)/C=C(/CC(C)C(=O)O[C@@H]1CCOC1=O)C(=O)O` (stereo partly drawn) [Compound 20, (2Z,4E)-4,6,8,10,12-Pentamethyl-2-[2-methyl-3-oxo-3-{(R)-2-oxotetrahydrofuran-3-yloxy}propyl]tetradec-2,4-dienoic Acid] showed an inhibition at 200 µM of at least 90%.
Work on `CCC(C)CC(C)CC(C)CC(C)/C=C(C)/C=C(/CC(C)C(=O)CCCO)C(=O)O` (stereo not shown) [Compound 13, (2Z,4E)-2-{3-(3-Hydroxypropyl)-2-methyl-3-oxopropyl}-4,6,8,10,12-pentamethyltetradec-2,4-dienoic Acid] yielded an inhibition at 200 µM of at least 90%.
`CCC(C)CC(C)CC(C)CC(C)/C=C(C)/C=C(/CC(C)C(=O)O[C@H]1CCOC1=O)C(=O)O` (stereo partly drawn) [Compound 15, (2Z,4E)-4,6,8,10,12-Pentamethyl-2-[2-methyl-3-oxo-3-{(S)-2-oxotetrahydrofuran-3-yloxy}propyl]tetradec-2,4-dienoic Acid] gave an inhibition at 200 µM of at least 90%.
`CCC(C)CC(C)CC(C)CC(C)/C=C(C)/C=C(/CC(C)C(=O)[C@@H](CC)C(=O)O)C(=O)O` (stereo partly drawn) [Compound 18, (2Z,4E)-2-[3-{(R)-1-Carboxypropyl}-2-methyl-3-oxopropyl]-4,6,8,10,12-pentamethyltetradec-2,4-dienoic Acid] showed an inhibition at 200 µM of at least 90%.
In the case of `CCC(C)CC(C)CC(C)CC(C)/C=C(C)/C=C(/CC(C)C(=O)O)C(=O)OC(C)(C)C` (stereo not shown) [Compound 8, (4Z,6E)-4-(tert-Butoxycarbonyl)-2,6,8,10,12,14-hexamethylhexadec-4,6-dienoic Acid], the inhibition at 200 µM was at least 90%.
`CCC(C)CC(C)CC(C)CC(C)/C=C(C)/C=C(/CC(C)C(=O)OC(C(=O)O)C(C(=O)OC)C(O)C(=O)OC)C(=O)OC` (stereo not shown) [Compound 6, 4-Hydroxy-5-methoxy-3-(methoxycarbonyl)-2-{(4Z,6E)-4-(methoxycarbonyl)-2,6,8,10,12,14-hexamethylhexadec-4,6-dienoyloxy}-5-oxopentanoic Acid] was tested, and the inhibition at 200 µM was at least 90%.
In the case of `CCOP(=O)(OCC)O[C@H](C(=O)O)[C@H](OC(=O)C(C)C/C(=C/C(C)=C/C(C)CC(C)CC(C)CC(C)CC)C(=O)O)C(=O)O` (stereo partly drawn) [Compound 17, (2S,3S)-2-{(4Z,6E)-4-Carboxy-2,6,8,10,12,14-hexamethylhexadec-4,6-dienoyloxy}-3-(diethoxyphosphoryloxy)succinic Acid], the inhibition at 200 µM was at least 90%.
`CCC(C)CC(C)CC(C)CC(C)/C=C(C)/C=C(/CC(C)C(=O)O[C@@H](CC(=O)O)C(=O)O)C(=O)O` (stereo partly drawn) [Compound 14, (2S)-2-{(4Z,6E)-4-Carboxy-2,6,8,10,12,14-hexamethylhexadec-4,6-dienoyloxy}succinic Acid] gave an inhibition at 200 µM of at least 90%.
Work on `CCC(C)CC(C)CC(C)CC(C)/C=C(C)/C=C(/CC(C)C(=O)OC(C(=O)O)C(C(=O)OCOC(C)=O)C(O)C(=O)OCOC(C)=O)C(=O)O` (stereo not shown) [Compound 30, (2Z,4E)-2-[3-{4-(Acetoxymethoxy)-2-{(acetoxymethoxy)carbonyl}-1-carboxy-3-hydroxy-4-oxobutoxy}-2-methyl-3-oxopropyl]-4,6,8,10,12-pentamethyltetradec-2,4-dienoic Acid] yielded an inhibition at 200 µM of at least 90%.
Compound `CCC(C)CC(C)CC(C)CC(C)/C=C(C)/C=C(/CC(C)C(=O)OC(C(=O)O)C(=O)O)C(=O)O` (stereo not shown) [Compound 22, 2-{(4Z,6E)-4-Carboxy-2,6,8,10,12,14-hexamethylhexadec-4,6-dienoyloxy}malonic Acid] has an inhibition at 200 µM of at least 90%.
Compound `CCC(C)CC(C)CC(C)CC(C)/C=C(C)/C=C(/CC(C)C(=O)OC1C(=O)OC(C(=O)OC)C1C(=O)OC)C(=O)OC` (stereo not shown) [Compound 5, Dimethyl 4-{(4Z,6E)-4-(methoxycarbonyl)-2,6,8,10,12,14-hexamethylhexadec-4,6-dienoyloxy}-5-oxotetrahydrofuran-2,3-dicarboxylate] has an inhibition at 200 µM of at least 90%.
In the case of `CCC(C)CC(C)CC(C)CC(C)/C=C(C)/C=C(/CC(C)C(=O)OCC(=O)O)C(=O)O` (stereo not shown) [Compound 9, (2Z,4E)-2-{3-(Carboxymethoxy)-2-methyl-3-oxopropyl}-4,6,8,10,12-pentamethyltetradec-2,4-dienoic Acid], the inhibition at 200 µM was at least 90%.
